# Measured values: patent publication US12351830B2, “Method for maintaining and amplifying colon cancer stem cells and method for inducing colon cancer organoid” (NATIONAL UNIVERSITY CORPORATION KOBE UNIVERSITY, priority 2017, dated 2025)
# Legend:
# Format in all cases: cell-based, human
# 2nd V50-OKS-SW480 cells = assay: 5-FU-chemoresistance analysis; settings: 1 and 50 μg/ml 5-FU, 72 hr, relative to cells without 5-FU, n=3
# Description: A total of 6×10^4 cells were seeded in 12-well plates with DMEM containing 0, 1, 50 μg/ml of 5-fluorouracil (5-FU, Kyowa Kirin) respectively. After incubation for 72 hr, the cell viability after 5-FU exposure was measured by the Countess (Invitrogen) system.
# 2nd V50-OKS cells [1] = assay: flat plane adhesion culture of induced colon cancer stem cells, cell count and morphology; settings: for effect in flat plane adhesion culture (morphology, number of cells): VPA 1 mM, CHIR99021 3 μM, 5 days
# Description: A human colon cancer cell line (SW480) and Plat-A amphotropic retrovirus packaging cells were obtained from the ATCC collection and Cell Biolabs (San Diego, CA, USA), respectively. Both cells were maintained in Dulbecco's modified Eagle's medium (DMEM) (Nacalai Tesque, Kyoto, Japan) supplemented with 10% fetal bovine serum (FBS) (Life Technologies) and penicillin (100 Units/ml) and streptomycin (100 μg/ml) (Life Technologies) at 37° C. in a humidified 5% […] incubator. In Plat-A culture, 1 μg/ml of puromycin (Nacalai Tesque) and 10 μg/ml of blasticidin (Funakoshi) were added. HUVECs (Lonza) and human MSCs (Lonza) were maintained in endothelial growth medium (Lonza) at 37° C. in a humidified 5% CO2 incubator. The cells were treated with FK506 (Sigma, 25 μM), VPA (WAKO, 1 mM) or CHIR99021 (Funakoshi, 3 μM) for 5 days. Thereafter, the cells were detached from the culture dish by an enzyme treatment, dispersed and the number of the cells was counted with Countess system (Invitrogen). The human induced pluripotent stem (hiPS) cells used as a control were generated from human peripheral blood mononuclear cells in the laboratory.
# Culture of SW480 cells after introduction of reprogramming factor, isolation of induced colon cancer stem cell (hereinafter to be also referred to as “colon iCSC”)-enriched cell population and induction of colon cancer organoid were performed according to the schedule described in FIG. 6. Establishing culture of colon iCSC and sorting of colon iCSC-enriched cell population were performed according to the method described in the above-mentioned non-patent document 3 (flow cytometry utilizing Hoechst33342 eliminating ability in the presence of 50 μM verapamil). Hereinafter colon iCSC-enriched cell population (cell population not labeled with Hoechst33342 in the presence of 50 μM verapamil; V50 cell) obtained by the first sorting is sometimes to be abbreviated as 1st V50 cell (or 1st V50-OKS cell), and the V50 cell obtained by the second sorting is sometimes to be abbreviated as 2nd V50 cell (or 2nd V50-OKS cell). On the other hand, the cell population labeled with Hoechst33342 in the presence of 50 μM verapamil is sometimes to be abbreviated as non V50cell or non V50-OKS cell. Colon cancer organoid was induced by the method described in the below-mentioned sphere formation assay.
# SW480 cells or 2nd V50 cells were subjected to flat plane adhesion culture in the presence of FK506 (Sigma) for 5-15 days, and the cell number was counted with Countess (Invitrogen) system. Alternatively, the cells were subjected to flat plane adhesion culture in the presence of FK506, and then suspension culture in the presence or absence of FK506 to form spheres. The sphere number was counted with Countess (Invitrogen) system. Unless otherwise specified, FK506 was used at a concentration of 25 μM in this Example.
# Duplexed Stealth siRNA (Invitrogen) were used for reference examples and were transduced to the cells according to the manufacturer's protocol.
# 2nd V50-OKS cells [2] = assay: sphere formation assay, induced colon cancer stem cells; settings: VPA 1 mM, CHIR99021 3 μM, 10 days
# Description: The cells were transferred to Ultra Low Attachment plates (Corning) in serum-free DMEM containing 10 ng/ml bFGF (WAKO), 10 μg/ml human insulin (CST), 100 μg/ml human transferrin (Roche) and 100 μg/ml BSA (Nacalai Tesque), and incubated at 37° C. in a 5% CO2 incubator for 10 days. The sphere count was calculated based on the sphere size which was larger than 100 μm. FK506 (25 μM), VPA (1 mM) or CHIR99021 (3 μM) were added to the medium and the spheres were then treated for 10 days. SW480 cells or 2nd V50 cells were subjected to flat plane adhesion culture in the presence of FK506 (Sigma) for 5-15 days, and the cell number was counted with Countess (Invitrogen) system. Alternatively, the cells were subjected to flat plane adhesion culture in the presence of FK506, and then suspension culture in the presence or absence of FK506 to form spheres. The sphere number was counted with Countess (Invitrogen) system. Unless otherwise specified, FK506 was used at a concentration of 25 μM in this Example.
# 2nd V50 cells = assay: colony formation assay; settings: 1 mM VPA, 3 μM CHIR or 25 μM FK506, day 12
# Description: 2nd VP50 cells produced by 3 independent experiments were seeded in a 6 well plate at a density of 2×10^3 cells/well. The next day, the medium was changed to a medium not added with the compound, or a medium added with 1 mM VPA, 3 μM CHIR or 25 μM FK506. Thereafter, the medium was changed every 2 days or 3 days. On day 12, the cells were fixed with methanol, stained with crystal violet and the colonies were counted using a stereoscopic microscope.
# NFATc3-GFP = assay: localization of NFATc3-GFP in 2nd V50-OKS cells; settings: 2nd V50-OKS cells treated with compound
# Excerpt: Retroviral vectors separately encoding OCT3/4, SOX2 or KLF4 in pMXs based vectors (pMXs-OCT3/4, pMXs-SOX2, pMXs-KLF4) were obtained from Addgene. Therefore, using these vectors, the polycistronic retroviral vector encoding OCT3/4, KLF4 and SOX2 (pMXs-OKS) was designed. That is, human OCT3/4, KLF4 and SOX2 were amplified by polymerase chain reaction (PCR) with primers containing the 2A sequences of Thosea asigna virus (T2A) and cloned into EcoRI site of pMXs vector using the In-fusion HD cloning system (Clontech). To generate pMXs-NFATc3-GFP construct, NFATc3-GFP cDNA were PCR amplified using HA-NFAT4 (3-407)-GFP (purchased from Addgene #21664) as a template and cloned into EcoRI-Notl site of pMXs-vector).
# Finally, the cellular localization of NFAT after the treatment of FK506, VPA and CHIR in the iCSCs was examined. NFATc3 fused to green fluorescent protein (NFATc3-GFP; Aramburu J, et al., Science, 1999; 285:2129-33, Peuker K, et al., Nat Med, 2016, 22:506-15) was retrovirally introduced into 2nd V50-OKS cells. In the 2nd V50-OKS cells without any compounds and those with FK506, it was observed that NFATc3-GFP localized in the cytoplasm. In contrast, localization of NFATc3-GFP was found in the nuclei of the 2nd V50-OKS cells treated with VPA and CHIR (FIG. 16). […] This is opposite to inhibition of calcineurin via cytoplasm-nuclear translocation of NFAT.
Structure (SMILES),viability of 2nd V50-OKS-SW480 cells in the presence of 5-FU compared with parental SW480 cells (2nd V50-OKS-SW480 cells),"effect in flat plane adhesion culture (morphology, number of cells) (2nd V50-OKS cells [1])",sphere forming ability (2nd V50-OKS cells [2]),number of secondary dome-shaped colonies (2nd V50 cells),cellular localization of NFATc3-GFP (NFATc3-GFP),"effect on the cell number (2nd V50-OKS cells [1]; 2nd V50-OKS cultures, FK506 25 μM, 5 days after passage)","total cell number amplification (2nd V50-OKS cells [1]; 2nd V50 cells adhesion cultured with FK506, 10 days)","total cell number amplification (2nd V50-OKS cells [1]; 2nd V50 cells adhesion cultured with FK506, 15 days)"
"O=c1[nH]cc(F)c(=O)[nH]1 [5-FU, 5-fluorouracil]",significantly higher,–,–,–,–,–,–,–
Cc1c[nH]c(-c2cnc(NCCNc3ccc(C#N)cn3)nc2-c2ccc(Cl)cc2Cl)n1 [CHIR99021],–,the same effect as siRNA,significantly suppressed,decreased,nuclei,–,–,–
"C=CC[C@@H]1/C=C(\C)C[C@H](C)C[C@H](OC)[C@H]2O[C@@](O)(C(=O)C(=O)N3CCCC[C@H]3C(=O)O[C@H](/C(C)=C/[C@@H]3CC[C@@H](O)[C@H](OC)C3)[C@H](C)[C@@H](O)CC1=O)[C@H](C)C[C@@H]2OC [FK506, FK506 (tacrolimus)]",–,–,–,–,–,no significant effect,about 100 times,about 1000 times
"CCCC(CCC)C(=O)O [VPA, valproic acid]",–,the same effect as siRNA,significantly suppressed,decreased,nuclei,–,–,–
